≈ marks a conversion by molar mass, not a printed value. Bounds are passed on as bounds.

These results are taken from ChEMBL document CHEMBL4152252, “Fluorine walk: The impact of fluorine in quinolone amides on their activity against African sleeping sickness” (Eur J Med Chem, 2018).

A short description of data set [1]: Drug level in rat liver microsomes assessed as CYP450-mediated metabolite formation treated with 1-Butyl-6-fluoro-N-(4-fluorobenzyl)-7-morpholino-4-oxo-1,4-dihydroquinoline-3-carboxamide at 100 uM using NADPH/H+ as co-factor after 30 to 90 mins by LC/MSD iom trap method. The data set is classed as ADME.
A short description of data set [2]: Drug level in rat liver cytosol assessed as CYP450-mediated metabolite formation treated with 1-Butyl-6-fluoro-N-(4-fluorobenzyl)-7-morpholino-4-oxo-1,4-dihydroquinoline-3-carboxamide at 100 uM using NADPH/H+ as co-factor after 30 to 90 mins by LC/MSD iom trap method. The data set is classed as ADME, subcellular.
Data set [3] in a line: Drug uptake in brain of B6/J mouse at 19.3 +/- 2.3 MBq, iv after 60 mins by autoradiography. The settings on record: in vivo, 1 h. The data set is classed as ADME, organism-based.
The nature of data set [4]: Octanol/water partition co-efficient, log P of the compound by HPLC based method. The data set is classed as physicochemical.
Data set [5] can be described thus: Solubility of the compound in RPMI-1640 medium. The class given is physicochemical.
A short description of data set [6]: Selectivity index, ratio of CC50 for mouse J774.1 cells to IC50 for trypomastigote forms of Trypanosoma brucei brucei TC 221 assessed as parasite growth inhibition after 48 hrs. The data set is classed as toxicity. The conditions noted are these: read-out: Ratio CC50/IC50.
Data set [7] has as its system Trypanosoma brucei brucei. The data set can be described thus: Antitrypanosomal activity against trypomastigote forms of Trypanosoma brucei brucei TC 221 assessed as parasite growth inhibition after 72 hrs by Alamar blue assay. The data set is classed as functional, organism-based. The settings on record: TC 221, 72 h.
Data set [8] in a line: Cytotoxicity against mouse J774.1 cells after 24 hrs by Alamar blue assay. The class given is cell-based.
Data set [9] relates to Trypanosoma brucei brucei. Kind of data set: Antitrypanosomal activity against trypomastigote forms of Trypanosoma brucei brucei TC 221 assessed as parasite growth inhibition after 48 hrs by Alamar blue assay. The class given is functional, organism-based. The settings on record: TC 221, 48 h.
Data set [10] is described as follows: Drug level in rat liver cytosol assessed as CYP450-mediated metabolite formation treated with N-benzyl-1-butyl-5-fluoro-7-morpholino-4-oxo-1,4-dihydroquinoline-3-carboxamide at 100 uM using NADPH/H+ as co-factor after 30 to 90 mins by LC/MSD iom trap method. The data set is classed as ADME, subcellular.
Data set [11] in a line: Drug level in rat liver microsomes assessed as CYP450-mediated metabolite formation treated with N-benzyl-1-butyl-5-fluoro-7-morpholino-4-oxo-1,4-dihydroquinoline-3-carboxamide at 100 uM using NADPH/H+ as co-factor after 30 to 90 mins by LC/MSD iom trap method. The data set is classed as ADME.
The nature of data set [12]: Thermodynamic equilibrium solubility of the compound in pH 7.4 phosphate buffered saline after 24 hrs by shake flask method. The data set is classed as physicochemical. The settings on record: read-out: Therm_solubility.
A short description of data set [13]: Drug level in rat liver cytosol assessed as CYP450-mediated metabolite formation treated with 1-Butyl-5-fluoro-N-(4-fluorobenzyl)-7-morpholino-4-oxo-1,4-dihydroquinoline-3-carboxamide at 100 uM using NADPH/H+ as co-factor after 30 to 90 mins by LC/MSD iom trap method. The data set is classed as ADME, subcellular.
Data set [14] can be described thus: Drug level in rat liver microsomes assessed as CYP450-mediated metabolite formation treated with 1-Butyl-5-fluoro-N-(4-fluorobenzyl)-7-morpholino-4-oxo-1,4-dihydroquinoline-3-carboxamide at 100 uM using NADPH/H+ as co-factor after 30 to 90 mins by LC/MSD iom trap method. The class given is ADME.
A short description of data set [15]: Half life in rat liver cytosol. The class given is ADME, subcellular.
A short description of data set [16]: Stability in rat liver cytosol assessed as compound turnover per mg protein. The data set is classed as ADME, subcellular.

Take `Cn1cc(C(=O)NCc2ccc(F)cc2)c(=O)c2cc(F)c(N3CCOCC3)cc21`: the Drug metabolism result in data set [1] and in data set [2] was “Metabolite_Detected” in each case.

Regarding `CC(O)CCn1cc(C(=O)NCc2ccc(F)cc2)c(=O)c2cc(F)c(N3CCOCC3)cc21` (stereo not given), the Drug metabolism result in data set [1] and in data set [2] was “Metabolite_Detected” each time.

Regarding `CCCCn1cc(C(=O)O)c(=O)c2cc(F)c(N3CCOCC3)cc21`, the Drug metabolism result in [1] and in data set [2] was “Metabolite_Detected” in each case.

Turning to `O=C(NCc1ccccc1)c1cn(CCC[18F])c2cc(N3CCOCC3)c(F)cc2c1=O`, the Drug uptake entry in data set [3] is “Active”.

With `CCCCn1cc(C(=O)NCc2ccccc2)c(=O)c2c(F)c(F)c(N3CCOCC3)cc21`, in [4], the logP came out at 3.97. For the same compound, the solubility result in data set [5] was “Insoluble”. In addition, in data set [6], the selectivity ratio at 48 h was more than 625. Also, the IC50 in data set [7] worked out at 30 nM; in data set [9], 40 nM. Besides, the CC50 at 24 h in data set [8] is more than 25000 nM.

In the case of `Cn1cc(C(N)=O)c(=O)c2c(F)cc(N3CCOCC3)cc21`, the Drug metabolism result in data set [10] and in data set [11] was “Metabolite_Detected” in each case.

Take `O=C(NCc1ccccc1)c1cn(CCCF)c2cc(N3CCOCC3)c(F)cc2c1=O`: the log partition coefficient (logP) in [4] was found to be 3.34. The selectivity ratio at 48 h in [6] was determined as 353. Also, the concentration for half-maximal inhibition (IC50) in data set [7] came to 170 nM; in [9], 120 nM. The compound further registered a CC50 at 24 h in [8] of 42400 nM. Also, in [12], the solubility thermodynamic at 24 h amounted to 1.41 µg/mL (≈ 3.19 µM).

With `CCn1cc(C(=O)NCc2ccccc2)c(=O)c2c(F)cc(N3CCOCC3)cc21`, the Drug metabolism entry in data set [10] and in [11] was “Metabolite_Detected” each time.

Regarding `CCCCn1cc(C(=O)NCc2ccccc2)c(=O)c2c(N(C)C)cc(N3CCOCC3)cc21`, the selectivity ratio at 48 h in [6] amounted to 24. The values for the IC50 in [7] and in data set [9] were 4800 nM and 1850 nM, respectively. The same compound showed a CC50 at 24 h in [8] of 44000 nM.

In turn, `CCCCn1cc(C(=O)NCc2ccccc2)c(=O)c2cc(OC)c(N3CCOCC3)cc21` had a logP in [4] of 3.73. Moreover, in [6], the selectivity ratio at 48 h was 135. Besides, the figures for the IC50 in [7] and in [9] were 240 nM and 310 nM, respectively. The same compound gave a CC50 at 24 h in [8] of 42000 nM. For the same compound, the solubility thermodynamic at 24 h in data set [12] was 2.73 µg/mL (≈ 6.07 µM).

As to `CCCCn1cc(C(=O)O)c(=O)c2c(F)cc(N3CCOCC3)cc21`, the Drug metabolism entry in [13] and in data set [14] was “Metabolite_Detected” in each case.

Turning to `CC(O)CCn1cc(C(=O)NCc2ccccc2)c(=O)c2c(F)cc(N3CCOCC3)cc21` (stereo not given), the Drug metabolism entry in data set [10] and in data set [11] was “Metabolite_Detected” in each case.

With `CCCCn1cc(C(=O)NCc2ccccc2)c(=O)c2c(OC)cc(N3CCOCC3)cc21`, in data set [6], the selectivity ratio at 48 h turned out to be 68. The IC50 in data set [7] is 650 nM; in [9], 760 nM. This compound returned a CC50 at 24 h in data set [8] of 51800 nM.

As to `O=C(NCc1ccccc1)c1cn(CCCOCc2ccccc2)c2cc(N3CCOCC3)c(F)cc2c1=O`, in [4], the logP was determined as 3.9. In data set [8], this compound came in with a CC50 at 24 h of more than 100000 nM.

Take `Cn1cc(C(=O)NCc2ccc(F)cc2)c(=O)c2c(F)cc(N3CCOCC3)cc21`: the Drug metabolism result in data set [13] and in data set [14] was “Metabolite_Detected” throughout.

As to `CCCCn1cc(C(=O)NCc2ccccc2)c(=O)c2cc(F)c(N3CCOCC3)cc21`, the half-life in [15] is 5.8 h. Further, the solubility thermodynamic at 24 h in data set [12] amounted to 0.005 µg/mL (≈ 0.0114 µM). Further, the Drug metabolism in data set [16] turned out to be 47.11 pmol/min/mg protein.

Turning to `CCCCn1cc(C(=O)NCc2ccccc2)c(=O)c2ccc(N3CCOCC3)c(F)c21`, in [4], the logP turned out to be 4.09. Also, the solubility entry in [5] is listed as “Insoluble”. In addition, the selectivity ratio at 48 h in data set [6] was more than 32. For the same compound, the IC50 came out at 860 nM in [7] and 790 nM in [9]. The compound also displayed a CC50 at 24 h in [8] of more than 25000 nM. Further, the solubility thermodynamic at 24 h in [12] is 0.23 µg/mL (≈ 0.526 µM).

Turning to `CCn1cc(C(=O)NCc2ccc(F)cc2)c(=O)c2c(F)cc(N3CCOCC3)cc21`, the Drug metabolism entry in data set [13] and in [14] was “Metabolite_Detected” in each case.

Take `CCCCn1cc(C(=O)NCc2ccccc2)c(=O)c2cc(C(F)(F)F)c(N3CCOCC3)cc21`: the logP in data set [4] worked out at 4.18. Further, in [6], the selectivity ratio at 48 h came out at 146. Further, the IC50 in data set [7] stood at 590 nM; in data set [9], 540 nM. This compound displayed a CC50 at 24 h in data set [8] of 78600 nM.

Take `O=C(NCc1ccc(F)cc1)c1c[nH]c2cc(N3CCOCC3)cc(F)c2c1=O`: the Drug metabolism entry in data set [13] and in data set [14] was “Metabolite_Detected” each time.

In the case of `O=C(NCc1ccc(F)cc1)c1c[nH]c2cc(N3CCOCC3)c(F)cc2c1=O`, the Drug metabolism result in data set [1] and in data set [2] was “Metabolite_Detected” each time.

Turning to `CCCCn1cc(C(=O)NCc2ccccc2)c(=O)c2ccc(N3CCOCC3)cc21`, the logP in [4] was found to be 3.51. Besides, in [6], the selectivity ratio at 48 h is more than 435. The IC50 in data set [7] was found to be 200 nM; in data set [9], 230 nM. In [8], this compound had a CC50 at 24 h of more than 100000 nM. The solubility thermodynamic at 24 h in [12] was determined as 1.36 µg/mL (≈ 3.24 µM).

On to `O=C(NCc1ccccc1)c1cn(CCCO)c2cc(N3CCOCC3)c(F)cc2c1=O`, for which the logP in data set [4] amounted to 3.04. The selectivity ratio at 48 h in [6] amounted to 160. In addition, the IC50 in data set [7] was 550 nM; in [9], 270 nM. Also, it took 43100 nM to reach half-maximal cytotoxicity in data set [8] (CC50 at 24 h). The solubility thermodynamic at 24 h in [12] stood at 18.7 µg/mL (≈ 42.5 µM).

Regarding `CCCCn1cc(C(N)=O)c(=O)c2c(F)cc(N3CCOCC3)cc21`, the Drug metabolism entry in data set [10] and in data set [11] was “Metabolite_Detected” in each case.

`CCCCn1cc(C(=O)NCc2ccccc2)c(=O)c2cc(F)c(N3CCOCC3)c(F)c21` had a logP in [4] of 4.57. For the same compound, the solubility entry in data set [5] was “Insoluble”. Besides, the selectivity ratio at 48 h in [6] is more than 333. Besides, the figures for the IC50 in data set [7] and in data set [9] were 200 nM and 60 nM, respectively. This compound gave a CC50 at 24 h in data set [8] of more than 20000 nM.

With `CCCCn1cc(C(=O)NCc2ccc(F)cc2F)c(=O)c2cc(F)c(N3CCOCC3)cc21`, the selectivity ratio at 48 h in data set [6] stood at 1990. The half-maximal inhibitory concentration (IC50) in data set [7] and in data set [9] was 30 nM each time. In data set [8], this compound showed a CC50 at 24 h of 59600 nM. For the same compound, the Drug metabolism in data set [16] was determined as 5.94 pmol/min/mg protein.

For the compound `CCCCn1cc(C(=O)NCc2ccccc2F)c(=O)c2cc(F)c(N3CCOCC3)cc21`, the selectivity ratio at 48 h in data set [6] turned out to be 90. Besides, the concentration for half-maximal inhibition (IC50) in data set [7] came out at 460 nM; in data set [9], 410 nM. Further, the CC50 at 24 h in data set [8] turned out to be 37000 nM.
